Assay results from patent publication US20250314668A1, “DNAZYMES FOR SENSING AND IMAGING TARGET MOLECULES” (BOARD OF REGENTS, THE UNIVERSITY OF TEXAS SYSTEM, priority 2024, published 2025).
In the oligonucleotide strings, read from the 5' end, every base follows the letter of its sugar. An asterisk marks phosphorothioate; unmarked linkages are phosphodiester. Other units and linkages are bracketed, terminal groups are in braces. A string of capitals states the bases alone. d = 2'-deoxy (DNA); r = 2'-OH (RNA)

B1: Cu^+ DNAzyme: substrate strand Cu1 aS annealed with enzyme strand Cu1 aE (nucleic acid)
chain 1: AGCTTCTTTCTAATACGGCTTACCAC
chain 2: GTGGTAAGCCTGGGCCTCTTTCTTTTTAAGAAAGAAC
modifications: DNA, backbone not given here; Cy5 on substrate, Iowa Black RQ on enzyme, further chemistry not fully specified
notes: substrate strand Cu1 aS annealed with enzyme strand Cu1 aE

Legend:
Format in all cases: biochemical
[1] = Fluorescence based activity assay of Cu^2+ sensor; conditions: fluorescence at 520 nm, 30 min
Procedure: (§1) Fluorescence based activity assay: For Cu^+ sensor, […] of Cu1 aS Cy5 and 9 µM of Cu1 aE Q were annealed in a buffer of 50 mM Bis-Tris, 150 mM NaCl, pH 7.5. For each test, 2 μL of the annealed sensor was diluted into 194 μL of buffer (50 mM Bis-Tris, 150 mM NaCl, pH 7.5), and 2 μL of 5 mM ascorbate was added. Then 2 μL of 2 μl different concentration of Cu^2+ were added. The signaling kinetics were monitored (Ex=635 nm; Em=666 nm) using Hitachi fluorimeter. For Cu^2+ sensor, the DNAzyme complex was formed by annealing the 5 μM of Cu2 PSrS FAM and 7.5 μM Cu2 aE Q in 50 mM MES, 25 mM NaCl, pH 6.0. For each well, 2 μL of the annealed sensor was diluted into 196 μL of buffer (50 mM MES, 25 mM NaCl, pH 6.0). 2 μL different concentration of Cu^2+ were added to initiate cleavage reaction, and the signaling kinetics were monitored (Ex=488 nm; Em=520 nm) using Hitachi fluorimeter.

[2] = Gel based activity assay of Cu^2+ DNAzyme
Procedure: (§2) FIG. 10 depicts gel and fluorescence-based activity assay for Cu^+ and Cu^2+ DNAzyme. PAGE Gel images of Cu^+ DNAzyme cleaving the substrate in the presence of various concentrations of Cut. Lane 1: Cu^+ aS, Lane 2: Cu^+ aE, Lane 3-10: the concentration of Cu^2+ is 0 nM, 125 nM, 250 nM, 500 nM, 1 μM, 2 μM, 4 μM, and 8 μM, respectively, the concentration of ascorbate is 50 μM. Quantification of Cu^+. Inset is the linear response at low Cu^+ concentrations. denaturing gel images of Cu^2+ DNAzyme cleaving the substrate in the presence of various concentrations of Cu^2+. Lane1-8: the concentration of Cu^2+ is 0 μM, 1 μM, 2 μM, 4 μM, 6 μM, 8 μM, 10 μM, and 20 μM, respectively. Quantification of Cu^2+. Inset: the linear response at low Cu^2+ concentrations.
(§3) Gel based activity assays: For Cu^+ DNAzyme, 1 μM of Cu1 aS and 2 μM of Cu1 aE were added in 50 mM Bis-Tris, 150 mM NaCl, pH 7.5. The solution was heated at 90° C. for 5 min and slowly cooled down to room temperature for more than 1 h to anneal the DNAzyme. After annealing, each sample contains a final of 5 μL of 0.25 μM DNAzyme complex. 2 ul of 50 μM of freshly prepared ascorbate was mixed with DNAzyme complex. After adding 2 μl different concentration of Cu^2+, incubated at room temperature for 60 min. […] The gels were analyzed with Bio-Rad Gel Doc 2000 imaging system.

[3] = Gel based activity assay of Cu^+ DNAzyme
Procedure: as §2, §3

[4] = Fluorescence based activity assay of Cu^+ sensor; conditions: fluorescence at 666 nm, 30 min
Procedure: as §1

Row | Molecule | detection limit [1] | activity with high ascorbic [2] | selectivity between copper oxidation states [2] | selectivity between copper oxidation states [3] | cleavage dependence on ascorbic ([3]; no cleavage products at low concentrations of ascorbic) | detection limit [4]
1 | Cu^2+ DNAzyme: substrate strand Cu2 PSrS annealed with enzyme strand Cu2 aE (chain 1 dAdGdTdCdAdCdTdAdTrA*dGdGdAdAdGdAdTdGdGdCdGdAdAdA; chain 2 TTTCGCCATCTTCACCAGGAAATAGTGACT; chain 2: unmodified DNA) | 35.16 nM | no activity | excellent selectivity |  |  | 
2 | B1 |  |  |  | excellent selectivity | ascorbic concentration dependent cleavage | 53.92 nM
